In US20130184273A1, “BICYCLIC PYRIMIDINES” (Bayer Intellectual Property GmbH, priority 2010, published 2013):

How the values were obtained:
[1] = molecular target: T1, His-tagged human recombinant kinase full-length Akt1 (Homo sapiens, UniProt P31749); assay: Akt1 kinase assay (TR-FRET); format: biochemical; details: 10 μM ATP, 60 min at 22° C., read-out: Akt1, median IC50
T1 construct: His-tagged human recombinant kinase full-length Akt1; His; purchased Invitrogen PV 3599; host or cells: insect cells
T1 sequence (P31749 whole entry): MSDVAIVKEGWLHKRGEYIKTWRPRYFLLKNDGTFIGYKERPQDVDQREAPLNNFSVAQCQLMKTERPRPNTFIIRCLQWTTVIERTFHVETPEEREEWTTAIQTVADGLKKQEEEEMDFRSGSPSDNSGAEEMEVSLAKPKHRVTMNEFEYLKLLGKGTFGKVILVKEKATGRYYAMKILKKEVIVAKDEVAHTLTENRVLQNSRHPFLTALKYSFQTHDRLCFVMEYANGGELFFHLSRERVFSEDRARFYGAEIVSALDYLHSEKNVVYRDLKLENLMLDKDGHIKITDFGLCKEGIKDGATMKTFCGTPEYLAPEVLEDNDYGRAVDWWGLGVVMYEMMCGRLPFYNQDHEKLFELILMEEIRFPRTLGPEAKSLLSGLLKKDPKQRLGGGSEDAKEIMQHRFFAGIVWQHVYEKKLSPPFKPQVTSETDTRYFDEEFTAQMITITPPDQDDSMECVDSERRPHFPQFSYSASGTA

[2] = molecular target: T2, His-tagged human recombinant kinase full-length Akt2 (Homo sapiens, UniProt P31751); assay: Akt2 kinase assay (TR-FRET); format: biochemical; details: 10 μM ATP, 60 min at 22° C., read-out: Akt2, median IC50
T2 construct: His-tagged human recombinant kinase full-length Akt2; His; purchased Invitrogen PV 3975; host or cells: insect cells
T2 sequence (P31751 whole entry): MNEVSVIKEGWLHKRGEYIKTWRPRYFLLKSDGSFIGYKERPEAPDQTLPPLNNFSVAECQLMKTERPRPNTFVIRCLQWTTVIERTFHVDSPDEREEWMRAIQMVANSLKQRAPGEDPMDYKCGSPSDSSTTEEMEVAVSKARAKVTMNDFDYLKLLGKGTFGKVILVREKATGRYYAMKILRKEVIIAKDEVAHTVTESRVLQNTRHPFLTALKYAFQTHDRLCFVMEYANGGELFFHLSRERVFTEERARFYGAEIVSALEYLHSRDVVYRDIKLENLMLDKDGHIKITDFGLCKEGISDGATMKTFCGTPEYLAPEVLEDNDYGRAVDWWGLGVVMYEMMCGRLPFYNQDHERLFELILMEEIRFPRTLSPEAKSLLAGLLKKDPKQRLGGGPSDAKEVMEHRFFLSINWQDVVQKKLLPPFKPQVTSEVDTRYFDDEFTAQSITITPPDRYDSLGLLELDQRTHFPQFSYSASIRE
Outline: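 TR-FRET read-out (anti-phosphoserine antibody, Eu-labelled anti-mouse IgG, streptavidin-XL665) of a 60 min, 22 °C reaction using 1 μM biotinylated peptide and 10 μM ATP. Enzyme: PDK1-activated full-length His-Akt2 from insect cells, about 0.2 ng/μl, with 15 min compound pre-binding; data normalised to no-inhibitor and no-enzyme controls.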

IC50 [1] [nM]	IC50 [2] [nM]	SMILES
794	960	Cc1nc2nc(-c3ccc(C4(N)CCC4)cc3)c(-c3ccccc3)cn2n1 [Example 1-0, 1-[4-(2-methyl-6-phenyl-[1,2,4]triazolo[1,5-a]pyrimidin-5-yl)-phenyl]-cyclobutylamine]
474	487	Cc1cn2cc(-c3ccccc3)c(-c3ccc(C4(N)CCC4)cc3)nc2n1 [Example 2-1, 1-[4-(2-Methyl-6-phenyl-imidazo[1,2-a]pyrimidin-7-yl)-phenyl]-cyclobutylamine]
329	299	CS(=O)(=O)c1ccc(-c2cnc3nc(-c4ccc(C5(N)CCC5)cc4)c(-c4ccccc4)cn23)cc1 [Example 4-0, 1-{4-[3-(4-Methansulfonyl-phenyl)-6-phenyl-imidazo[1,2-a]pyrimidin-7-yl]-phenyl}-cyclobutylamine]
376	340	Cn1cc(-c2nc3nc(-c4ccc(C5(N)CCC5)cc4)c(-c4ccccc4)cn3n2)cn1 [Example 5-2, 1-{4-[2-(1-methyl-1H-pyrazol-4-yl)-6-phenyl-[1,2,4]triazolo[1,5-a]pyrimidin-5-yl]-phenyl}-cyclobutylamine]
1410	681	NC1(c2ccc(-c3nc4ncc(-c5ccc(F)cc5)n4cc3-c3ccccc3)cc2)CCC1 [Example 6-0, 1-{4-[3-(4-Fluorophenyl)-6-phenyl-imidazo[1,2-a]pyrimidin-7-yl]-phenyl}-cyclobutylamine]
824	205	NC(=O)c1cccc(-c2cnc3nc(-c4ccc(C5(N)CCC5)cc4)c(-c4ccccc4)cn23)c1 [Example 6-2, 3-{7-[4-(1-Amino-cyclobutyl)-phenyl]-6-phenyl-imidazo[1,2-a]pyrimidin-3-yl}-benzamide]
235	165	NC1(c2ccc(-c3nc4ncc(-c5cn[nH]c5)n4cc3-c3ccccc3)cc2)CCC1 [Example 6-3, 1-{4-[6-Phenyl-3-(1H-pyrazol-4-yl)-imidazo[1,2-a]pyrimidin-7-yl]-phenyl}-cyclobutylamine]
